From patent US20250114460A1, “NOVEL PLK1 DEGRADATION INDUCING COMPOUND” (UPPTHERA, INC., priority 2021, published 2025)

Molecular target: T1, PLK1 (Homo sapiens, UniProt P53350)
T1 construct: endogenous in cells; host or cells: HeLa LgBit (Plk1-HiBit KI): HeLa stably expressing LgBit, with a CRISPR/Cas9 knock-in of HiBit at the endogenous PLK1 locus
Assay: Luciferase assay for PLK1 in HeLa LgBit (Plk1-HiBit KI) cell line
Type: cell-based
Details: 300 nM compound, luminescence after 9 hours
Experimental: 2. Luciferase Assay for PLK1
(1) Preparation and Culture of HeLa LgBit (Plk1-HiBit KI) Cell Line
A HeLa cell line in which the LgBit vector was transfected and expressed stably was prepared. Then, after constructing gRNA and donor to express the HiBit amino acid sequence behind the C-terminal of the Plk1 gene, which was inherent in the cell, it was inserted into the cell together with a vector capable of expressing CRISPR/Cas9. Only the cells in which the insertion was completed and knock-in had progressed were selected, sub-cultured and used.
(2) Treatment of Compounds of the Present Invention and Method of Luciferase Assay
In the case of HeLa LgBit (Plk1-HiBit KI), the compounds were treated after being released after thymidine block, and the process was as follows. Thymidine (Sigma-Aldrich Cat. No. T9250-5G) was completely dissolved in DW and used in the experiment. For thymidine block, the products were treated with 2 mM of thymidine and then incubated for 24 hours. For release and chemical treatment, the medium was suctioned and washed with 1×PBS. TrypLE™ was added and incubated in 37° C. CO2 incubator for 5 min. Cells neutralized by adding complete media were counted through a counter. For each well of a 96-well culture plate (SPL), 3.3×10^4 cells and a total medium volume of 150 μL were seeded and incubated in a CO2 incubator.
Each cell line was incubated in a CO2 incubator for 18 hours, and Endurazine was added to each well to make up 4% of the total volume. After adding the compound of the present invention in a 96-well white plate (SPL) to a concentration of 300 nM, the wavelength of the plate reader (BMG Labtech, CLARIOstar Plus) was set to […], and then the luminescence was tracked in real time.
In Table 2, Activity represents the ratio of the luminescense value of each Exemplary Compound treatment group to DMSO treatment group (+++: <0.3, ++<0.6, +<0.7).

T1 sequence (P53350 whole entry): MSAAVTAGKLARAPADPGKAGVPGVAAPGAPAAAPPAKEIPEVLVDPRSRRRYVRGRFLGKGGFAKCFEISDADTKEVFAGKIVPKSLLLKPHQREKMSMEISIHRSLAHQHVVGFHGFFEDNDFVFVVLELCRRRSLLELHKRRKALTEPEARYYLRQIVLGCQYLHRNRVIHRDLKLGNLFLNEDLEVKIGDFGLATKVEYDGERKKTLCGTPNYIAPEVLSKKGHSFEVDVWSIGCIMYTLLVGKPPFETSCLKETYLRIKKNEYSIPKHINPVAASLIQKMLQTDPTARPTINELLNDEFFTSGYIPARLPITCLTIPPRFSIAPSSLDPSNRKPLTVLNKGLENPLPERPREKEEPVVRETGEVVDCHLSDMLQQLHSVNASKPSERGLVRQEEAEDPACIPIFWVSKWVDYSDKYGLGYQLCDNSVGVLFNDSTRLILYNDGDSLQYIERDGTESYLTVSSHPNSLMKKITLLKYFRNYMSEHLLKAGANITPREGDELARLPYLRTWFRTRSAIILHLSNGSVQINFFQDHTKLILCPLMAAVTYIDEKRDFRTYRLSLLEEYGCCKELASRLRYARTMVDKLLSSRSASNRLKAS

Activity: ratio of the luminescense value of each Exemplary Compound treatment group to DMSO treatment group	Structure (SMILES)
++ (++<0.6)	COc1cc(C(=O)NC2CCN(C(=O)CCCC#Cc3cccc4c3C(=O)N(C3CCC(=O)NC3=O)C4=O)CC2)ccc1Nc1ncc2c(n1)N(C1CCCC1)CC(F)(F)C(=O)N2C (centres unmarked) [Compound 180, 4-((9-cyclopentyl-7,7-difluoro-5-methyl-6-oxo-6,7,8,9-tetrahydro-5H-pyrimido[4,5-b][1,4]diazepin-2-yl)amino)-N-(1-(6-(2-(2,6-dioxopiperidin-3-yl)-1,3-dioxoisoindolin-4-yl)hex-5-ynoyl)piperidin-4-yl)-3-methoxybenzamide]
+ (+<0.7)	COc1cc(C(=O)NC2CCN(C(=O)CC3CN(c4cccc5c4C(=O)N(C4CCC(=O)NC4=O)C5=O)C3)CC2)c(F)cc1Nc1ncc2c(n1)N(C1CCCC1)CC(F)(F)C(=O)N2C (centres unmarked) [Compound 204, 4-((9-cyclopentyl-7,7-difluoro-5-methyl-6-oxo-6,7,8,9-tetrahydro-5H-pyrimido[4,5-b][1,4]diazepin-2-yl)amino)-N-(1-(2-(1-(2-(2,6-dioxopiperidin-3-yl)-1,3-dioxoisoindolin-4-yl)azetidin-3-yl)acetyl)piperidin-4-yl)-2-fluoro-5-methoxybenzamide]
++ (++<0.6)	COc1cc(C(=O)NC2CCN(C(=O)CCCN3CCN(c4cccc5c4C(=O)N(C4CCC(=O)NC4=O)C5=O)CC3)CC2)ccc1Nc1ncc2c(n1)N(C1CCCC1)CC(F)(F)C(=O)N2C (centres unmarked) [Compound 64, 4-((9-cyclopentyl-7,7-difluoro-5-methyl-6-oxo-6,7,8,9-tetrahydro-5H-pyrimido[4,5-b][1,4]diazepin-2-yl)amino)-N-(1-(4-(4-(2-(2,6-dioxopiperidin-3-yl)-1,3-dioxoisoindolin-4-yl)piperazin-1-yl)butanoyl)piperidin-4-yl)-3-methoxybenzamide]
++ (++<0.6)	COc1cc(C(=O)NC2CCN(C(=O)CCC#Cc3cccc4c3C(=O)N(C3CCC(=O)NC3=O)C4=O)CC2)ccc1Nc1ncc2c(n1)N(C1CCCC1)CC(F)(F)C(=O)N2C (centres unmarked) [Compound 179, 4-((9-cyclopentyl-7,7-difluoro-5-methyl-6-oxo-6,7,8,9-tetrahydro-5H-pyrimido[4,5-b][1,4]diazepin-2-yl)amino)-N-(1-(5-(2-(2,6-dioxopiperidin-3-yl)-1,3-dioxoisoindolin-4-yl)pent-4-ynoyl)piperidin-4-yl)-3-methoxybenzamide]

More lines, now with the values behind:

Structure (SMILES)	Activity: ratio of the luminescense value of each Exemplary Compound treatment group to DMSO treatment group
COc1cc(C(=O)N2CCN(CCCCNc3ccc4c(c3)C(=O)N(C3CCC(=O)NC3=O)C4=O)CC2)c(F)cc1Nc1ncc2c(n1)N(C1CCCC1)CC(F)(F)C(=O)N2C (centres unmarked) [Compound 187, 5-((4-(4-(4-((9-cyclopentyl-7,7-difluoro-5-methyl-6-oxo-6,7,8,9-tetrahydro-5H-pyrimido[4,5-b][1,4]diazepin-2-yl)amino)-2-fluoro-5-methoxybenzoyl)piperazin-1-yl)butyl)amino)-2-(2,6-dioxopiperidin-3-yl)isoindoline-1,3-dione]	+ (+<0.7)
COc1cc(C(=O)NC2CCN(C(=O)CC[C@@H]3CN(Cc4cccc5c4C(=O)N(C4CCC(=O)NC4=O)C5=O)CCO3)CC2)ccc1Nc1ncc2c(n1)N(C1CCCC1)CC(F)(F)C(=O)N2C (stereo partly drawn) [Compound 173, 4-((9-cyclopentyl-7,7-difluoro-5-methyl-6-oxo-6,7,8,9-tetrahydro-5H-pyrimido[4,5-b][1,4]diazepin-2-yl)amino)-N-(1-(3-((2R)-4-((2-(2,6-dioxopiperidin-3-yl)-1,3-dioxoisoindolin-4-yl)methyl)morpholin-2-yl)propanoyl)piperidin-4-yl)-3-methoxybenzamide]	+ (+<0.7)
COc1cc(C(=O)Nc2ccc(OCCN3CCN(c4cccc5c4C(=O)N(C4CCC(=O)NC4=O)C5=O)CC3)cc2)c(F)cc1Nc1ncc2c(n1)N(C1CCCC1)CC(F)(F)C(=O)N2C (centres unmarked) [Compound 141, 4-((9-cyclopentyl-7,7-difluoro-5-methyl-6-oxo-6,7,8,9-tetrahydro-5H-pyrimido[4,5-b][1,4]diazepin-2-yl)amino)-N-(4-(2-(4-(2-(2,6-dioxopiperidin-3-yl)-1,3-dioxoisoindolin-4-yl)piperazin-1-yl)ethoxy)phenyl)-2-fluoro-5-methoxybenzamide]	++ (++<0.6)
COc1cc(C(=O)N2CCN(CCCCNc3cccc4c3C(=O)N(C3CCC(=O)NC3=O)C4=O)CC2)c(F)cc1Nc1ncc2c(n1)N(C1CCCC1)CC(F)(F)C(=O)N2C (centres unmarked) [Compound 184, 4-((4-(4-(4-((9-cyclopentyl-7,7-difluoro-5-methyl-6-oxo-6,7,8,9-tetrahydro-5H-pyrimido[4,5-b][1,4]diazepin-2-yl)amino)-2-fluoro-5-methoxybenzoyl)piperazin-1-yl)butyl)amino)-2-(2,6-dioxopiperidin-3-yl)isoindoline-1,3-dione]	+ (+<0.7)
COc1cc(C(=O)NCCOCCOCCNc2cccc3c2C(=O)N(C2CCC(=O)NC2=O)C3=O)c(N2CCN(C)CC2)cc1Nc1ncc2c(n1)N(C1CCCC1)CC(F)(F)C(=O)N2C (centres unmarked) [Compound 222, 4-((9-cyclopentyl-7,7-difluoro-5-methyl-6-oxo-6,7,8,9-tetrahydro-5H-pyrimido[4,5-b][1,4]diazepin-2-yl)amino)-N-(2-(2-(2-((2-(2,6-dioxopiperidin-3-yl)-1,3-dioxoisoindolin-4-yl)amino)ethoxy)ethoxy)ethyl)-5-methoxy-2-(4-methylpiperazin-1-yl)benzamide]	++ (++<0.6)
COc1cc(C(=O)NC2CC(N(C)CC3CCN(c4ccc5c(c4)C(=O)N(C4CCC(=O)NC4=O)C5=O)CC3)C2)ccc1Nc1ncc2c(n1)N(C1CCCC1)CC(F)(F)C(=O)N2C (centres unmarked) [Compound 104, 4-((9-cyclopentyl-7,7-difluoro-5-methyl-6-oxo-6,7,8,9-tetrahydro-5H-pyrimido[4,5-b][1,4]diazepin-2-yl)amino)-N-(3-(((1-(2-(2,6-dioxopiperidin-3-yl)-1,3-dioxoisoindolin-5-yl)piperidin-4-yl)methyl)(methyl)amino)cyclobutyl)-3-methoxybenzamide]	++ (++<0.6)
COc1cc(C(=O)NCCOCCOCCOCCOCCOCCNc2cccc3c2C(=O)N(C2CCC(=O)NC2=O)C3=O)c(N2CCN(C)CC2)cc1Nc1ncc2c(n1)N(C1CCCC1)CC(F)(F)C(=O)N2C (centres unmarked) [Compound 225, 4-((9-cyclopentyl-7,7-difluoro-5-methyl-6-oxo-6,7,8,9-tetrahydro-5H-pyrimido[4,5-b][1,4]diazepin-2-yl)amino)-N-(17-((2-(2,6-dioxopiperidin-3-yl)-1,3-dioxoisoindolin-4-yl)amino)-3,6,9,12,15-pentaoxaheptadecyl)-5-methoxy-2-(4-methylpiperazin-1-yl)benzamide]	++ (++<0.6)
COc1cc(C(=O)N[C@H]2CC[C@H](OC3CCN(c4ccc5c(c4)C(=O)N(C4CCC(=O)NC4=O)C5=O)CC3)CC2)c(F)cc1Nc1ncc2c(n1)N(C1CCCC1)CC(F)(F)C(=O)N2C (some centres unmarked) [Compound 116, 4-((9-cyclopentyl-7,7-difluoro-5-methyl-6-oxo-6,7,8,9-tetrahydro-5H-pyrimido[4,5-b][1,4]diazepin-2-yl)amino)-N-((1r,4r)-4-((1-(2-(2,6-dioxopiperidin-3-yl)-1,3-dioxoisoindolin-5-yl)piperidin-4-yl)oxy)cyclohexyl)-2-fluoro-5-methoxybenzamide]	++ (++<0.6)
COc1cc(C(=O)N2CCC(CCCN3CCN(c4cccc5c4C(=O)N(C4CCC(=O)NC4=O)C5=O)CC3)CC2)ccc1Nc1ncc2c(n1)N(C1CCCC1)CC(F)(F)C(=O)N2C (centres unmarked) [Compound 95, 4-(4-(3-(1-(4-((9-cyclopentyl-7,7-difluoro-5-methyl-6-oxo-6,7,8,9-tetrahydro-5H-pyrimido[4,5-b][1,4]diazepin-2-yl)amino)-3-methoxybenzoyl)piperidin-4-yl)propyl)piperazin-1-yl)-2-(2,6-dioxopiperidin-3-yl)isoindoline-1,3-dione]	++ (++<0.6)
COc1cc(C(=O)N2CCC(CN3CCN(c4cccc5c4C(=O)N(C4CCC(=O)NC4=O)C5=O)CC3)CC2)ccc1Nc1ncc2c(n1)N(C1CCCC1)CC(F)(F)C(=O)N2C (centres unmarked) [Compound 93, 4-(4-((1-(4-((9-cyclopentyl-7,7-difluoro-5-methyl-6-oxo-6,7,8,9-tetrahydro-5H-pyrimido[4,5-b][1,4]diazepin-2-yl)amino)-3-methoxybenzoyl)piperidin-4-yl)methyl)piperazin-1-yl)-2-(2,6-dioxopiperidin-3-yl)isoindoline-1,3-dione]	++ (++<0.6)
